Results published in ChEMBL document CHEMBL4020815 (J Med Chem, 2017).
Converted amounts (≈) assume the structure as drawn.

Tests used:
[1] = Fraction unbound in CD-1 mouse plasma; assay type: ADME, cell-free
[2] = target: T1, Bifunctional purine biosynthesis protein ATIC (Homo sapiens, UniProt P31939); assay: Inhibition of AICARFT in human NCI-H460 cells assessed as increase in ZMP levels using low folate media after 16 hrs by LC-MS method; assay type: cell-based
[3] = Permeability across apical to basolateral side in MDCK cells at 20 uM; assay type: ADME, cell-based, Canis lupus familiaris; conditions: dog
Mus musculus [4] = assay: Unbound volume of distribution at steady state in CD-1 mouse at 5 mg/kg, iv by LC-MS/MS method; assay type: ADME, organism-based; conditions: in vivo
[5] = Plasma concentration in CD-1 mouse at 10 mg/kg, po after 1 hr by LC-MS/MS method; assay type: ADME, organism-based
Mus musculus [6] = assay: In vivo inhibition of AICARFT in tumor of low folate diet fed nude mouse xenografted with human NCI-H460 cells assessed as increase in circulating AICAr levels at 0.3 to 30 mg/kg after 4 hrs relative to vehicle-treated control; assay type: functional
[7] = Oral bioavailability in CD-1 mouse at 5 mg/kg by LC-MS/MS method; assay type: ADME, organism-based; conditions: in vivo
[8] = Half life in CD-1 mouse at 5 mg/kg, po by LC-MS/MS method; assay type: ADME, organism-based; conditions: in vivo
Mus musculus [9] = assay: Unbound Cmax in CD-1 mouse at 5 mg/kg, po by LC-MS/MS method; assay type: ADME, organism-based; conditions: in vivo
Mus musculus [10] = assay: Unbound clearance in CD-1 mouse at 5 mg/kg, iv by LC-MS/MS method; assay type: ADME, organism-based; conditions: in vivo
[11] = target: T1, Bifunctional purine biosynthesis protein ATIC; assay: Inhibition of human full length N-terminal His-tagged AICARFT expressed in Escherichia coli BL21 (DE3) using ZMP/10-formyltetrahydrofolate as substrate assessed as decrease in IMP levels after 1 hr by mass spectrometric method
Mus musculus [12] = assay: In vivo inhibition of AICARFT in tumor of low folate diet fed nude mouse xenografted with human NCI-H460 cells assessed as increase in intratumoral ZMP levels at 0.3 to 30 mg/kg after 4 hrs relative to vehicle-treated control; assay type: functional
Mus musculus [13] = assay: Unbound AUC in CD-1 mouse at 5 mg/kg, po by LC-MS/MS method; assay type: ADME, organism-based; conditions: in vivo
[14] = target: T1, Bifunctional purine biosynthesis protein ATIC; assay: Inhibition of human AICARFT
[15] = AUC in CD-1 mouse at 10 mg/kg, po by LC-MS/MS method; assay type: ADME, organism-based; conditions: in vivo
[16] = Equilibrium aqueous solubility of the compound at pH 2 after 20 hrs by HPLC method; assay type: physicochemical
[17] = Oral bioavailability in CD-1 mouse at 10 mg/kg by LC-MS/MS method; assay type: ADME, organism-based; conditions: in vivo
[18] = Equilibrium aqueous solubility of the compound at pH 7.5 after 20 hrs by HPLC method; assay type: physicochemical
[19] = Clearance in CD-1 mouse at 1 mg/kg, iv by LC-MS/MS method; assay type: ADME, organism-based; conditions: in vivo
[20] = Equilibrium aqueous solubility of the compound at pH 6 after 20 hrs by HPLC method; assay type: physicochemical
[21] = Lipophilicity, log D of the compound at pH 7; assay type: physicochemical; conditions: buffer
[22] = Dissociation constant, pKa of the compound; assay type: physicochemical
[23] = Antitumor activity against human MDA-MB-231met2 cells xenografted in athymic nude mouse assessed as tumor volume at 5 mg/kg, iv qd administered for 5 days measured after 9 days relative to control; assay type: functional
Mus musculus [24] = assay: Toxicity in athymic nude mouse xenografted with human MDA-MB-231met2 cells assessed as body weight loss at 5 mg/kg, iv qd administered for 5 days; assay type: organism-based; conditions: in vivo, 120 h
Mus musculus [25] = assay: Toxicity in athymic nude mouse xenografted with human MDA-MB-231met2 cells assessed as mortality at 5 mg/kg, iv qd administered for 5 days; assay type: organism-based; conditions: in vivo, 120 h

T1 sequence (P31939 whole entry): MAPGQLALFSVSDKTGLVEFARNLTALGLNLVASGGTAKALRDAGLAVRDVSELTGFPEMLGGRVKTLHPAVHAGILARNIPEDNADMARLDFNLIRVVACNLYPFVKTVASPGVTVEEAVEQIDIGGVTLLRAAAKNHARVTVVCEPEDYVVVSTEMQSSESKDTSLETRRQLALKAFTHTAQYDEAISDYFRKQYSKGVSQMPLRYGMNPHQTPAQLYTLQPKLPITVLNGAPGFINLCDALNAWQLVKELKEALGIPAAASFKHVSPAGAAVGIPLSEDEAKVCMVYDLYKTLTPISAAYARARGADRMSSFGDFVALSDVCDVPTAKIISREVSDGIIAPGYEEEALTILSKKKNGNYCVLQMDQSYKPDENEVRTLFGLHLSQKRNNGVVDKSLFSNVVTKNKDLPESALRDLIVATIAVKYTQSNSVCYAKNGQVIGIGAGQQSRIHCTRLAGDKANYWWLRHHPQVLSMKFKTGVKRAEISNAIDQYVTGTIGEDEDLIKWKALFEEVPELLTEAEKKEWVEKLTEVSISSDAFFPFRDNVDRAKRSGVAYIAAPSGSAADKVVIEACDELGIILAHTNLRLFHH

| Structure (SMILES) | fraction unbound [1] | EC50 [2] [nM] | permeability [3] [%] | concentration at 1 h [5] [µM] | IC50 [11] [nM] | further results |
| --- | --- | --- | --- | --- | --- | --- |
| O=c1[nH]ccc2cc(F)c(NS(=O)(=O)c3ccc(N4C[C@@H](O)C(F)(F)C4)s3)cc12 | 0.03 | 27 | 0.28 | 33 | 12 | Vduss (Mus musculus [4]): 15 L/kg; fold change (FC) (Mus musculus [6]): 80; bioavailability [7]: 55%; half-life [8]: 3.2 h; fCmax (Mus musculus [9]): 293 nM; CL free (Mus musculus [10]): 50 mL/min/kg; fold change (FC) (Mus musculus [12]): >100; fAUC (Mus musculus [13]): 2.11 µM·h |
| O=c1[nH]ccc2cc(F)c(NS(=O)(=O)c3ccc(N4CCC[C@@H](O)C4)s3)cc12 | 0.03 | 68 | 0.17 | 1.7 | 26 |  |
| O=c1[nH]ccc2cc(F)c(NS(=O)(=O)c3ccc(N4CCC(O)CC4)s3)cc12 | 0.05 | 21 | 0.25 | 4 | 13 |  |
| O=c1[nH]ccc2cc(F)c(NS(=O)(=O)c3ccc(N4CCC[C@H](O)C4)s3)cc12 | 0.03 | 18 | 0.17 | 6.7 | 18 |  |
| O=c1[nH]ccc2cc(F)c(NS(=O)(=O)c3ccc(N4C[C@@H](F)[C@@H](O)C4)s3)cc12 (stereo in doubt) | 0.05 | 17 | 0.17 | 12 | 20 |  |
| O=c1[nH]ccc2cc(F)c(NS(=O)(=O)c3ccc(N4CC[C@H](O)C4)s3)cc12 | 0.05 |  | 0.29 | 4.7 |  |  |
| O=c1[nH]ccc2cc(F)c(NS(=O)(=O)c3ccc(N4C[C@H](O)C(F)(F)C4)s3)cc12 | 0.02 | 31 | 0.34 | 19.3 | 13 |  |
| CN(Cc1cnc2nc(N)nc(N)c2n1)c1ccc(C(=O)N[C@@H](CCC(=O)O)C(=O)O)cc1 [METHOTREXATE] |  |  |  |  |  | Activity [23]: 88%; Activity (Mus musculus [24]): Non-Toxic; Activity (Mus musculus [25]): Non-Toxic |
| CCC1(C)CC(c2ccc(S(=O)(=O)Nc3cc4c(=O)[nH]ccc4cc3F)s2)=CNC1=O (stereo not given) | < 0.03 | 4 |  | 10.5 | < 5 |  |
| O=c1[nH]ccc2cc(F)c(NS(=O)(=O)c3ccc(N4C[C@@H](O)[C@@H](F)C4)s3)cc12 (stereo in doubt) | 0.05 | 7.9 | 0.18 | 9.1 | 7.8 | Vduss (Mus musculus [4]): 9 L/kg; fold change (FC) (Mus musculus [6]): 80; bioavailability [7]: 33%; half-life [8]: 2.8 h; fCmax (Mus musculus [9]): 232 nM; CL free (Mus musculus [10]): 44 mL/min/kg; fold change (FC) (Mus musculus [12]): >100; fAUC (Mus musculus [13]): 1.52 µM·h |

Further lines, with some results ahead:

| fraction unbound [1] | EC50 [2] [nM] | permeability [3] [%] | concentration at 1 h [5] [µM] | IC50 [11] [nM] | Structure (SMILES) | further results |
| --- | --- | --- | --- | --- | --- | --- |
|  |  |  |  | 1000 to 5000 | Nc1nc2ccc(NS(=O)(=O)c3ccc(C(=O)N[C@@H](CCC(=O)O)C(=O)O)cc3)cc2c(=O)[nH]1 | Ki [14]: 6 nM |
|  |  |  |  | 34800 | O=C1NC(=O)c2cc(NS(=O)(=O)c3ccc(Cl)cc3)ccc21 |  |
|  | 1810 | 0.35 |  | 723 | N#Cc1ccc(S(=O)(=O)Nc2cc3c(=O)[nH]ccc3cc2F)cc1 | AUC [15]: 55800 ng·h/mL; solubility thermodynamic at 20 h [16]: 10 µg/mL (≈ 29.1 µM); bioavailability [17]: 79%; solubility thermodynamic at 20 h [18]: 230 µg/mL (≈ 670 µM); clearance [19]: 2.34 mL/min/kg; solubility thermodynamic at 20 h [20]: 20 µg/mL (≈ 58.3 µM); logD [21]: 0.6; pKa [22]: 5.97 |
|  | 567 | 0.55 |  | 608 | N#Cc1ccc(S(=O)(=O)Nc2ccc3cc[nH]c(=O)c3c2)cc1 | AUC [15]: 16100 ng·h/mL; solubility thermodynamic at 20 h [16]: 30 µg/mL (≈ 92.2 µM); bioavailability [17]: 43%; solubility thermodynamic at 20 h [18]: 160 µg/mL (≈ 492 µM); clearance [19]: 4.47 mL/min/kg; solubility thermodynamic at 20 h [20]: 40 µg/mL (≈ 123 µM); logD [21]: 1.7; pKa [22]: 6.93 |
|  |  |  |  | 18100 | N#Cc1ccc(S(=O)(=O)Nc2ccc3nc(N)[nH]c(=O)c3c2)cc1 |  |
|  |  |  |  | > 100000 | N#Cc1ccc(S(=O)(=O)Nc2ccccc2)cc1 |  |
| 0.05 | 62 | 0.09 | 1.7 | < 5 | O=c1ccc(-c2ccc(S(=O)(=O)Nc3cc4c(=O)[nH]ccc4cc3F)s2)c[nH]1 |  |
|  |  |  |  | 90000 | N#Cc1ccc(S(=O)(=O)Nc2cccc(C(N)=O)c2)cc1 |  |
| < 0.02 | 10 | 0.09 | 30.6 | < 5 | CC1(C)CC(c2ccc(S(=O)(=O)Nc3cc4c(=O)[nH]ccc4cc3F)s2)=CNC1=O | Vduss (Mus musculus [4]): 9 L/kg; bioavailability [7]: 23%; half-life [8]: 5.2 h; fCmax (Mus musculus [9]): 187 nM; CL free (Mus musculus [10]): 19 mL/min/kg; fAUC (Mus musculus [13]): 2.159 µM·h |
